Results reported in patent US9877960B2 (priority 2012, dated 2018).
Entries after “also recorded” stand apart in the source; their conditions may differ.

Experiments:
[1] = test system: acetylcholine in the hippocampus; assay: Concentration of acetylcholine in the hippocampus of rats by microdialysis; type: in vivo, rat; settings: 200 mg/kg oral once
Description: It is considered that the hippocampus region of the brain, in which a cholinergic neuron is known to be involved, has a function related to learning and memory. Since cholinergic neuron is impaired in degenerative disease with symptoms such as reduced learning and memory, an increase in the concentration of acetylcholine in the hippocampus will improve the symptoms such as reduced learning and memory. The concentration of acetylcholine in the rat hippocampus was increased about 2.5-fold, as measured by microdialysis, by the active ingredient of the agents of the present invention.
A dialysis probe was embedded in the hippocampus of each rat, and measurement was conducted as in Example 1. 2,5-Piperazinedione,3,6-bis(phenylmethyl)-,(3S,6S) was suspended in 0.5% CMC-Na, and 200 mg/kg was orally administered once. The amount of acetylcholine in 15 μl of perfusion liquid collected immediately before the […] oral administration and every 30 minutes after the oral administration was quantitatively determined by HPLC-ECD. The results obtained within the period from 1 hour before the oral administration to 3 hours after the oral administration are shown in FIG. 3, where the time immediately before the oral administration of the test sample is set to 0 minute. […]

mice [2] = assay: Single-dose acute toxicity test; type: in vivo, mouse; settings: 2 g/kg single dose
[3] = Chromosome aberration test
AChE = AChE (Homo sapiens, UniProt P22303); assay: AChE inhibitory action with MATP+ substrate; type: biochemical; settings: absorbance at 412 nm, read-out: concentration (IC50) required for 50% inhibition of AChE
Sequence of AChE (P22303 32-614): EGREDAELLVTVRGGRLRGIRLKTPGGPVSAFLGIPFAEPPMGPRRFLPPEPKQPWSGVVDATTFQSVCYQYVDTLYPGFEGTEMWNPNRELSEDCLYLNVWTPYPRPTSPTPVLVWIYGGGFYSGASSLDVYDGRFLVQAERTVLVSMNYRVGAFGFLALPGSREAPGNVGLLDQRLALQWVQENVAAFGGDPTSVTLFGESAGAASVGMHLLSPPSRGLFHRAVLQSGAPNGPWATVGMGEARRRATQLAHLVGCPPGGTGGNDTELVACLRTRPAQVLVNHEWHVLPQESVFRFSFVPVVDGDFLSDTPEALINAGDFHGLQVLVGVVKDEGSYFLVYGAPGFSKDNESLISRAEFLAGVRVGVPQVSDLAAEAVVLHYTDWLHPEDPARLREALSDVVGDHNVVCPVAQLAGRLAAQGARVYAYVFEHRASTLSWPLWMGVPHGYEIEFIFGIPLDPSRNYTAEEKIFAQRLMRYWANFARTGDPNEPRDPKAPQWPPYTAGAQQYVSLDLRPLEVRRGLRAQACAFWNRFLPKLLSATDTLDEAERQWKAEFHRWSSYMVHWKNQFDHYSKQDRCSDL
Protocol: (§1) The active ingredient of the agents of the present invention has AChE inhibitory action. AChE inhibitory action may be measured with MATP+ (1,1-dimethyl-4-acetylthiomethylpiperidine), which is a substrate having high selectivity for AChE (Biol Pharma Bull, 33(4), 702-706, 2010). Specifically, AChE is reacted with MATP+, and measurement is conducted using as an indicator a change in absorbance at 412 nm associated with reaction of detection reagent DNTB (5,5′-dithiobis(2-nitrobenzoic acid)).
as §1, with “AChE” for “The active ingredient of the agents of the present invention has AChE inhibitory action. AChE”, “action was” for “action may be”, “AChE was” for “AChE is”, “measurement was” for “measurement is”

mice [4] = assay: Mice micronucleus test; type: in vivo
rats = type: in vivo; settings: 28-day repeated dose
[5] = test system: rats with scopolamine-induced impairment of learning; assay: Radial maze test using rats with scopolamine-induced impairment of learning; type: in vivo, rat; settings: 200 mg/kg oral, scopolamine 0.5 mg/kg i.p., 8-direction radial maze
Protocol: Scopolamine is a non-selective competitive antagonist of muscarinic acetylcholine receptors. Laboratory animals with scopolamine-induced impairment of learning are widely used as a memory disorder model.
Using SD male rats which were 7 weeks of age, practice training was conducted while the rats were under food deprivation, and thereafter a main test was conducted.
Food was placed at the end of each arm of an 8-direction radial maze, and an animal was placed on a platform at the center of the maze. Completion of one trial was when the animal finished acquiring food from all arms or when 10 minutes elapsed since the animal was placed on the platform. The training was conducted once a day. “Correct choice” was defined as visiting an unselected arm in the trial, and “wrong choice” was defined as visiting an arm from where food had already been acquired.
2,5-Piperazinedione,3,6-bis(phenylmethyl)-,(3S,6S) was suspended in 0.5% CMC-Na, and 20 mg/kg and 200 mg/kg were orally administered to the rats which attained the standard in the above practice training trials. Ten minutes after the oral administration, 0.5 mg/kg of scopolamine was intraperitoneally administered. Thirty minutes after the intraperitoneal administration of scopolamine, an 8-direction radial maze test was conducted, and the number of wrong choices and the time taken for the […] to acquire all food were counted. […]

[6] = test system: serotonin in the prefrontal region; assay: Concentration of serotonin in the prefrontal region of rats by microdialysis; type: in vivo, rat
Protocol: The active ingredient of the agents of the present invention has the effect of increasing the concentration of serotonin in the synaptic cleft via inhibitory activity on SERT binding.
Male SD rats which were 10 to 12 weeks of age were used. The concentration of serotonin in the prefrontal region of each rat was measured in accordance with a published document (Kehr J., and Yoshitake T. (2006) Monitoring brain chemical signals by microdialysis. In: Encyclopedia of Sensors, Vol. 6. (Eds. C. A. Grimes, E. C. Dickey and M. V. Pishko) American Scientific Publishers, USA. 287-312) by microdialysis. Specifically, a dialysis probe was implanted in the prefrontal region of each rat under isoflurane anesthesia. Five days after the implantation surgery, artificial cerebrospinal fluid (148 mM of NaCl, 4 mM of KCl, 0.8 mM of MgCl2, 1.4 mM of CaCl2, 1.2 mM of Na2HPO4, 0.3 mM of NaH2PO4, pH 7.2)) was perfused at the flow rate of 1 μl/min under ambulatory conditions without anesthesia. 2,5-Piperazinedione,3,6-bis(phenylmethyl)-,(3S,6S) was suspended in 0.5% sodium carboxymethylcellulose (CMC-Na), and 2 mg/kg, 20 mg/kg, and 200 mg/kg were orally administered for 14 consecutive days. The amount of […] in 15 μl of perfusion liquid collected immediately before the final oral administration and every 30 minutes after the oral administration was quantitatively determined by HPLC-ECD. The results obtained within the period from 1 hour before the oral administration to 3 hours after the oral administration are shown in FIG. 1, where the time immediately before the oral administration of the test sample is set to 0 minute.

[7] = test system: loser mice (mice in a depressive state); assay: Morris water maze test with mice in a depressive state (loser mice); type: in vivo, mouse; settings: loser C57BL/6 mice
Protocol: The active ingredient of the agents of the present invention has antidepressive action. Antidepressive action as SSRI may be measured by a method described in a published document (Exp Anim, 59(2), 191-197, 2010). Specifically, first, a Morris water maze test is conducted for 8 days using mice.
The active ingredient of the agents of the present invention has learning motivation improving action. The Morris water maze test has been reported as a method for measuring spatial memory and learning (Learn. Motiv. 12, 239-260 (1981)). In this test, the time required to reach an escape platform (escape latency) is used as a parameter for evaluation, because mice will remember their surrounding scenery and swim in a pool filled with water to try to find and reach the escape platform, which is a goal, with their memory as a guide. Since mice used in a main test are chosen from those which were subjected to the Morris water maze test for 8 days and could not reach the escape platform within […], a reduction in the time required to reach the escape platform can be regarded as an improvement in learning motivation.
Antidepressive action was measured in accordance with a published document (Exp Anim, 59(2), 191-197, 2010). […]

[8] = listed as active ingredient of the agents of the present invention

O=C1N[C@@H](Cc2ccccc2)C(=O)N[C@H]1Cc1ccccc1 [2,5-piperazinedione,3,6-bis(phenylmethyl)-,(3S,6S)]
increase of concentration of acetylcholine in the hippocampus [1]: 2.5 fold | increase of concentration of acetylcholine in the hippocampus [1, 8]: about 2.5 fold | mutagenicity in Ames test (Ames test): no mutagenicity | toxicity in single-dose acute toxicity test (mice [2]): no toxicity | mutagenicity in chromosome aberration test [3]: no mutagenicity | IC50 (AChE): 3.4 µM | mutagenicity in mice micronucleus test (mice [4]): no mutagenicity | no-observable-effect level (rats): ≥ 10 mg/kg/day | percentage of correct choices [5]: improved significantly | percentage of correct choices [5, 8]: significantly improved | concentration of serotonin in the prefrontal region ([6]; male SD rats, 20 mg/kg oral, 14 consecutive days): increased significantly | concentration of serotonin in the prefrontal region ([6]; male SD rats, 200 mg/kg oral, 14 consecutive days): increased significantly | concentration of serotonin in the prefrontal region ([6]; normal rats, oral for 2 weeks, across doses): increased dose-dependently and significantly | escape latency ([7]; oral 0.2 mg/kg or more): reduced significantly | escape latency ([7]; oral 0.02, 0.2, 2 and 20 mg/kg, dose dependence): dose-dependent, significant reduction; also recorded: reduced dose-dependently
